Where two headings read alike, the source gives them in different places.

In experiment [1] the test system is Karpas 422 cells expressing mutant EZH2 (Y641N). Description: Karpas 422 cell viability (Cell Titre Glo) assay. In kind it is cell-based, human. Conditions: CTG viability, time point (Day 4, Day 7 or Day 11) not given, read-out: IC50, Inhibiting Proliferation of Cells Expressing an Activating Mutant Form of EZH2. The method, then: Karpas 422 cell line is a human B cell non-Hodgkin's lymphoma cell line established from a patient having DLBCL. This EZH2 heterozygotic cell line expresses a mutant form of EZH2 enzyme (Y641N) that increases histone H3 methylation and this mutation has been implicated in the tumorgenesis of lymphomas, such as DLBCL.
Karpas 422 cells (PHE cat no., 06101702) were cultured in RPMI medium supplemented with 20% fetal bovine serum and 1% penicillin/1% streptomycin and plated at a density of 1000 cells/90 μl/well in 96 well white assay plates. A dose response curve for compounds of the present invention was determined by adding a 10 μl aliquot of stock solutions of varying concentrations of compounds to the same medium in each well, over a concentration range of 10 μM using 3-fold dilutions to a final concentration of 1.5 nM. The plates were incubated at 37° C. for predetermined time periods, Day 4, Day 7, or Day 11, and the viability of the cells was measured using a CTG assay kit (Cell Titre Glo; Promega cat. no G7573) on Day 4 and Day 7 in accordance with the manufacturer's instructions.
For the viability assay for the Day 11 plates, the plates were subjected to centrifugation at 1100 rpm for five minutes on Day 7 and the supernatant was removed by aspiration. The cells were resuspended in 90 μl aliquot of the appropriate growth medium lacking the compound followed by addition of 10 μl of a 10× stock of the same compound at the same concentration. The viability of the Day 11 cells was measured using the CTG assay kit described above in accordance with the manufacturer's instructions. The IC50 values for each compound at each predetermined time point were calculated using Graph pad PRISM software and the results are shown in Table 7. Key: A=≤250 nM; B=>250 nM-≤500 nM; C=>500 nM-≤5 μM and N.D.=not determined.

Experiment [2] deals with purified human, His-tagged PRC2 complex (Homo sapiens (Human), UniProt O75530). Nature of the experiment: Hot Spot HMT assay of PRC2 enzymatic activity (tritiated methyl transfer from SAM to core histone). Type of experiment: biochemical. As to conditions: 10 nM purified PRC2 complex, 0.05 mg/ml core histone H3, 1 uM 3H-SAM, 1 hr at 30° C.; read-out: IC50, Inhibition of PRC2-mediated Enzymatic Activity. The method, then: Ten-point dose-response curves for compounds of the present invention were determined using a Hot Spot HMT assay (Reaction Biology Corp; see Horiuchi et al., Assay Drug Dev Technol. (2013) 4: 227-236 doi: 10.1089/adt.2012.480). The assay uses purified human, His-tagged PRC2 complex, including N-terminal His-tagged EZH2 enzyme, N-terminal Flag-tagged embryonic ectoderm development protein (EED), N-terminal His-tagged suppressor of zeste 12 (SUZ12), N-terminal His-tagged AEBP2, and N-terminal His-tagged RbAp48. In this assay, the transfer of the tritiated methyl group from radiolabeled S-adenosyl methionine (SAM) to purified core histone protein by EZH2 is quantitated after filtration to determine the activity of the core PRC2 complex in the presence and absence of compound.
Briefly, compounds of the present invention were solubilized in DMSO and a series of 10, three-fold serial dilutions were made for each compound in 15% DMSO. The initial starting concentration for the serial dilutions of each compound was 1.0 μM. Control samples lacking compound, EZH2 enzyme or various reaction components also were prepared and processed in parallel with compound test samples. SAH (S-(5-adenosyl)-L-homocysteine) was used as a positive control for assay validation.
An aliquot of each serial dilution of test compound was added to deep 384 well plate using Acoustic Technology instrument (Echo 550, LabCyte) containing reaction buffer (50 mM Tris-HCl (pH 8.)), 0.01% Brij35, 1 mM EDTA, 1 mM DTT, 1 mM PMSF and 1% DMSO), 10 nM purified PRC2 complex and 0.05 mg/ml core histone H3 in a 5 μl volume. The reaction was mixed gently and then pre-incubated for 20 min at 30° C. The enzymatic reaction was initiated by adding 1 uM S-Adenosyl-L-[methyl ^3H]methionine and incubated for 1 hr at 30° C. After 1 hr, the reaction product was detected using a filter binding method and the amount of tritiated H3 core histone was quantitated using a scintillation counter. The IC50 value for each compound was determined from each 10-point dose-response curve using GraphPad Prism software and the results for exemplary compounds of Formula (I) are shown in Table 5. Key: A=≤250 nM; B=>250 nM—≤500 nM; and C=>500 nM—≤2 μM.

For experiment [3], the system named is PRC2-mediated histone H3 methylation (H3 Lys27 trimethylation) in Pfeiffer cells expressing mutant EZH2 (A677G). Nature of the experiment: Tri-Methyl Histone H3 (Lys 27) sandwich ELISA in Pfeiffer cells. In kind it is cell-based, human. As to conditions: Pfeiffer cells, 96 hours incubation, ELISA, read-out: IC50, Inhibition of EZH2-mediated Histone H3 Trimethylation. An excerpt:
The Pfeiffer cell line was established from a […] from a patient having metastatic diffuse large B-cell lymphoma (DLBCL). This cell line expresses a mutant form of the EZH2 enzyme (A677G) that results in enhanced EZH2 activity leading to increased methylation of histone H3 Lys27. Increased trimethylation of histone H3 Lys27 is believed to be implicated in tumorgenesis and poor clinical prognosis in lymphomas (McCabe et al., (2012) Nature 492:108-112).
Inhibition of PRC2-mediated histone H3 methylation by compounds of Formula (I) was measured by ELISA using a Tri-Methyl Histone H3 (Lys 27) Sandwich ELISA Kit (Cell Signaling Tech #7866C) in accordance with the manufacturer's instructions. Briefly, Pfeiffer cells were cultured in RPMI medium supplemented with 10% fetal bovine serum and 1% penicillin and 1% streptomycin in 96 well culture plates at 37° C. to a density of 8000 cells/90 μl/well and the cells were harvested. A series of 3-fold serial dilutions of each test compound of Formula (I) were prepared in RPMI medium and added to the cells at final concentrations ranging from 1 μM to 0.15 nM. The plates were incubated at 37° C. for 96 hours.
After incubation, the cells were pelleted by centrifugation in a pre-cooled 4° C. rotor at 1,100 rpm for 10 min and the supernatant was removed by aspiration. The cell pellet was resuspended in 55 μl of Lysis Buffer (0.4M HCl) and incubated on ice with periodic shaking for 30 minutes. The lysed cells were subjected to centrifugation at 4,200 rpm for 10 min at 4° C. and the supernatant containing acid-soluble proteins was collected and the remainder discarded. The acid-soluble proteins were brought to a neutral pH by the addition of 20 μl of Neutralization Buffer (1 M Sodium phosphate, dibasic (pH 12.5), 2.5 mM DTT and 1 mM PMSF) and the neutralized lysates were analyzed by ELISA.
A 65 μl aliquot of each cell lysate was added to a well of a microwell strip, the microwells were sealed using tape and incubated either at 37° C. for two hours or at 4° C. overnight. After incubation, the tape was removed at the microwells were washed four times using 200 μl of 1× Wash Buffer. To each washed microwell, a 100 μl aliquot of an anti-trimethyl histone H3 Lys27 Detection Antibody solution was added and the microwells were incubated at 37° C. for one hour. The Detection Antibody solution was removed by aspiration and the wells were washed four times each using 200 μl of 1× Wash Buffer.
A 100 μl aliquot of an HRP-linked secondary antibody was added to each well, the wells were sealed with tape and incubated at 37° C. for 30 min. The HRP-linked secondary antibody solution was removed by aspiration and the wells were washed four times using 200 μl of 1× Wash Buffer. A 100 μl aliquot of a TMB substrate was added to each well, the wells were sealed with tape and incubated at 37° C. for 10 min or 25° C. for 30 min. The reaction was stopped by the addition of 100 μl aliquot of a STOP solution and the plate was shaken briefly. The degree of histone H3 trimethylation was determined using a spectrophotometric readout by measuring the absorbance at 450 nm and then calculating the amount of trimethylated histone H3. Key: A=≤250 nM; B=>250 nM-≤500 nM; and C=>500 nM-≤5 μM.

Sequence of purified human, His-tagged PRC2 complex (Q15910 whole entry): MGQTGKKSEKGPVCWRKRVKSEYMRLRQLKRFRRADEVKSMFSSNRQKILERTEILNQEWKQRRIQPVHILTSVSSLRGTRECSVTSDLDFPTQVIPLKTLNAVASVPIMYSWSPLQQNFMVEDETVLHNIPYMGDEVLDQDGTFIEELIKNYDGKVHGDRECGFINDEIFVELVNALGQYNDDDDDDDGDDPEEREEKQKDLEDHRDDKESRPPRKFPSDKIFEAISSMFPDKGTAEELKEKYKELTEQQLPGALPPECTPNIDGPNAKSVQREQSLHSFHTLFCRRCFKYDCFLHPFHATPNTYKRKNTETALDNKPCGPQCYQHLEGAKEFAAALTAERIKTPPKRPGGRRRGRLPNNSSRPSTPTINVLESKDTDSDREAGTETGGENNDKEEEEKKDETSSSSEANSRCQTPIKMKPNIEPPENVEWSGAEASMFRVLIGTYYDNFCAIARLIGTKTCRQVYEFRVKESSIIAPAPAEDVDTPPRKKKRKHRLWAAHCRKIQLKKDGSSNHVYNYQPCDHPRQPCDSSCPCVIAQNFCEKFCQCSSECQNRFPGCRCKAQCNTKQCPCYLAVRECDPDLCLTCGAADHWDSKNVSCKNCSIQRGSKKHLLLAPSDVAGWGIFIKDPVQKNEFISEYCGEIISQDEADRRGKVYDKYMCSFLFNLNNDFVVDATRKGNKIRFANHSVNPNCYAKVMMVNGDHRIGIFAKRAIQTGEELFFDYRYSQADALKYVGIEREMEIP
Sequence of purified human, His-tagged PRC2 complex (O75530 whole entry): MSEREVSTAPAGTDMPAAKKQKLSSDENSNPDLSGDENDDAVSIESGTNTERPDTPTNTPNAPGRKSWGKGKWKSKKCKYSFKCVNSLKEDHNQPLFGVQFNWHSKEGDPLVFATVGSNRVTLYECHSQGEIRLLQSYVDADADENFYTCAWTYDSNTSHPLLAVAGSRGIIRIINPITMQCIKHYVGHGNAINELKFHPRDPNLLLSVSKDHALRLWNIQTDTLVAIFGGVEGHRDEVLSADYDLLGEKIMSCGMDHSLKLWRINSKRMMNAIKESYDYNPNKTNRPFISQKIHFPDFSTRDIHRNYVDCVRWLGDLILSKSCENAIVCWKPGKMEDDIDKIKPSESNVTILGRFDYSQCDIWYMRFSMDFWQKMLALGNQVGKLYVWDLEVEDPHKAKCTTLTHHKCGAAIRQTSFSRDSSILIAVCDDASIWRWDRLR
Sequence of purified human, His-tagged PRC2 complex (Q15022 whole entry partner): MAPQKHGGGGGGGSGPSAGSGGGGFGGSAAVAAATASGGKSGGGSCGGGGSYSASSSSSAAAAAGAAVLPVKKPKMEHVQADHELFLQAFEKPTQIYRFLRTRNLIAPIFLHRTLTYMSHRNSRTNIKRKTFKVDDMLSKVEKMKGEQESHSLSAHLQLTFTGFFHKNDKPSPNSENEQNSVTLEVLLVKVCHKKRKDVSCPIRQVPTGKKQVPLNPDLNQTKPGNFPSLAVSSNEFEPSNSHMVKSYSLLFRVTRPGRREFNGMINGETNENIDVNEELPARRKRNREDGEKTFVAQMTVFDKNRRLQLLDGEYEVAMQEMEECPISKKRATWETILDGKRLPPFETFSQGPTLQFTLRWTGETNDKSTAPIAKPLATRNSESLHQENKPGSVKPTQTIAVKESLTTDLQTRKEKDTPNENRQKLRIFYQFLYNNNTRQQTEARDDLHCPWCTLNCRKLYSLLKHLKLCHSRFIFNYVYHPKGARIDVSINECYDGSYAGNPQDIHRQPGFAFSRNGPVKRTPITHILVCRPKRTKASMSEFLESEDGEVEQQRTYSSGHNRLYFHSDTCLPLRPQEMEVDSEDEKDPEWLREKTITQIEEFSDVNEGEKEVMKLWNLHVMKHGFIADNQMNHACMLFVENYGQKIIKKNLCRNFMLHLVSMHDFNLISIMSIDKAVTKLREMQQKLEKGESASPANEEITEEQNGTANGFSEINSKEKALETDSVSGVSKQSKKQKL
Sequence of purified human, His-tagged PRC2 complex (Q6ZN18 whole entry partner): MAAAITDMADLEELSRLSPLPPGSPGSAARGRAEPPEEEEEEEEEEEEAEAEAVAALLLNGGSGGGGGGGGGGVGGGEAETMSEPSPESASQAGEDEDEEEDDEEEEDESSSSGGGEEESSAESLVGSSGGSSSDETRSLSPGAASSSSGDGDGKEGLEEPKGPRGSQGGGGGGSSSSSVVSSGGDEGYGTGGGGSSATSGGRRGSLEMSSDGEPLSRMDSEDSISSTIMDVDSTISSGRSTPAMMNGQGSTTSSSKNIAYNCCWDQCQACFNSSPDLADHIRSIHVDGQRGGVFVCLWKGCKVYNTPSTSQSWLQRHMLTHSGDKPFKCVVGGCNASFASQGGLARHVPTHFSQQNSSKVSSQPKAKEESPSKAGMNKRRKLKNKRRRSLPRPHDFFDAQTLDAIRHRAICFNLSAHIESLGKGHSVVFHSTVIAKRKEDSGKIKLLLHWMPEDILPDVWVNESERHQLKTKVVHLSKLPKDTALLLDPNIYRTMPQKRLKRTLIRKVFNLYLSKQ
Sequence of purified human, His-tagged PRC2 complex (Q09028 whole entry partner): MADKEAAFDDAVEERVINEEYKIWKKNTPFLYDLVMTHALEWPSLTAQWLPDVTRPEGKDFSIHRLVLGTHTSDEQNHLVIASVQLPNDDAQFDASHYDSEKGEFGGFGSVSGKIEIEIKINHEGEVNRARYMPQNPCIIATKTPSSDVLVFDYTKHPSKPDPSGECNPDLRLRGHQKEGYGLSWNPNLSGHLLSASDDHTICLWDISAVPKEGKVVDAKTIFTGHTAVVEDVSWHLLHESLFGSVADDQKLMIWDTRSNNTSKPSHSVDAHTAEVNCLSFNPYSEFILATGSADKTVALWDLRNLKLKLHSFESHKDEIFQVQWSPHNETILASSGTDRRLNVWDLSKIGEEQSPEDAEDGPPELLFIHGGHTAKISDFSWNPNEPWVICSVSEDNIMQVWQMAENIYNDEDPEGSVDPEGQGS

In the case of `Cc1cc(-c2cnc(NCc3c(F)ccc4c3CCO4)n3cc(C(C)N)nc23)n(C)n1` (single isomer, unassigned) [Example 12, 2-(1-aminoethyl)-8-(1,3-dimethyl-1H-pyrazol-5-yl)-N-((5-fluoro-2,3-dihydrobenzofuran-4-yl)methyl)imidazo[1,2-c]pyrimidin-5-amine], the IC50 in experiment [1], in experiment [2] and in experiment [3] was below 250 nM in each case.
Turning to `Cc1cc(-c2cnc(NCc3c(F)ccc4c3CCO4)n3cc(C(C)O)nc23)n(C)n1` (stereo not drawn) [Example 7, 1-(8-(1,3-dimethyl-1H-pyrazol-5-yl)-5-(((5-fluoro-2,3-dihydrobenzofuran-4-yl)methyl)amino)imidazo[1,2-c]pyrimidin-2-yl)ethan-1-ol], the IC50 in experiment [1] (Homo sapiens) is 500 to 5000 nM; in experiment [2], below 250 nM; in experiment [3] (Homo sapiens) it was below 250 nM.
Turning to `COCc1cn2c(NCc3c(F)ccc4c3CCO4)ncc(-c3cc(C)nn3C)c2n1` [Example 9, 8-(1,3-dimethyl-1H-pyrazol-5-yl)-N-((5-fluoro-2,3-dihydrobenzofuran-4-yl)methyl)-2-(methoxymethyl)imidazo[1,2-c]pyrimidin-5-amine], the IC50 in experiment [1] (Homo sapiens) was 250 to 500 nM; in experiment [2], 500 to 2000 nM; in experiment [3] (Homo sapiens) it was 500 to 5000 nM.
`Cc1cc(-c2cnc(NCc3c(F)ccc4c3CCO4)n3cc(CN)nc23)n(C)n1` [Example 10, 2-(aminomethyl)-8-(1,3-dimethyl-1H-pyrazol-5-yl)-N-((5-fluoro-2,3-dihydrobenzofuran-4-yl)methyl)imidazol[1,2-c]pyramidin-5-amine]: the IC50 in experiment [1] (Homo sapiens), in experiment [2] and in experiment [3] (Homo sapiens) was below 250 nM in each case.
In the case of `Cc1cc(S(C)(=O)=O)ccc1-c1cnc(NCc2c(F)ccc3c2CCO3)n2cc(CN)nc12` [Example 13, 2-(aminomethyl)-N-((5-fluoro-2,3-dihydrobenzofuran-4-yl)methyl)-8-(2-methyl-4-(methylsulfonyl)phenyl)imidazo[1,2-c]pyrimidin-5-amine], the IC50 in experiment [1] (Homo sapiens), in experiment [2] and in experiment [3] (Homo sapiens) was below 250 nM in each case.
Take `Cn1nc(C(F)(F)F)cc1-c1cnc(NCc2c(F)ccc3c2CCO3)n2cc(CN)nc12` [Example 15, 2-(aminomethyl)-N-((5-fluoro-2,3-dihydrobenzofuran-4-yl)methyl)-8-(1-methyl-3-(trifluoromethyl)-1H-pyrazol-5-yl)imidazo[1,2-c]pyrimidin-5-amine]: the IC50 in experiment [1] (Homo sapiens) was below 250 nM; in experiment [2], 250 to 500 nM; in experiment [3] (Homo sapiens) it was below 250 nM.
With `NCc1cn2c(NCc3c(F)ccc4c3CCO4)ncc(-c3cc(F)cc(F)c3)c2n1` [Example 16, 2-(aminomethyl)-8-(3,5-difluorophenyl)-N-((5-fluoro-2,3-dihydrobenzofuran-4-yl)methyl)imidazo[1,2-c]pyrimidin-5-amine], the IC50 in experiment [1] (Homo sapiens) was in the range of 500 to 5000 nM; in experiment [2], 500 to 2000 nM; in experiment [3] (Homo sapiens), 500 to 5000 nM.
With `Cc1c(F)cccc1-c1cnc(NCc2c(F)ccc3c2CCO3)n2cc(CN)nc12` [Example 17, 2-(aminomethyl)-N-((5-fluoro-2,3-dihydrobenzofuran-4-yl)methyl)-8-(3-fluoro-2-methylphenyl)imidazo[1,2-c]pyrimidin-5-amine], the figures for the IC50 in experiment [1] (Homo sapiens), in experiment [2] and in experiment [3] (Homo sapiens) were 500 to 5000 nM, 500 to 2000 nM and 500 to 5000 nM, respectively.
As to `Cn1nccc1-c1cnc(NCc2c(F)ccc3c2CCO3)n2cc(CN)nc12` [Example 18, 2-(aminomethyl)-N-((5-fluoro-2,3-dihydrobenzofuran-4-yl)methyl)-8-(1-methyl-1H-pyrazol-5-yl)imidazo[1,2-c]pyrimidin-5-amine], the IC50 in experiment [1] (Homo sapiens), in experiment [2] and in experiment [3] (Homo sapiens) was below 250 nM each time.
Regarding `Cc1ncccc1-c1cnc(NCc2c(F)ccc3c2CCO3)n2cc(CN)nc12` [Example 19, 2-(aminomethyl)-N-((5-fluoro-2,3-dihydrobenzofuran-4-yl)methyl)-8-(2-methylpyridin-3-yl)imidazo[1,2-c]pyrimidin-5-amine], the values for the IC50 in experiment [1] (Homo sapiens), in experiment [2] and in experiment [3] (Homo sapiens) were below 250 nM, below 250 nM and 250 to 500 nM, respectively.
Consider `COc1ccc(-c2cnc(NCc3c(F)ccc4c3CCO4)n3cc(CN)nc23)c(C)n1` [Example 20, 2-(aminomethyl)-N-((5-fluoro-2,3-dihydrobenzofuran-4-yl)methyl)-8-(6-methoxy-2-methylpyridin-3-yl)imidazo[1,2-c]pyrimidin-5-amine], for which the IC50 was below 250 nM in experiment [1] (Homo sapiens), below 250 nM in experiment [2] and 250 to 500 nM in experiment [3] (Homo sapiens).

(Values after patent publication US12252493B2, “Imidazo[1,2-c]pyrimidine derivatives as PRC2 inhibitors for treating cancer” (Mirati Therapeutics, Inc., priority 2019, dated 2025).)
